{
  "source": "patent US20240390408A1",
  "about": "“METHOD OF TREATING HEPATITIS C VIRUS IN PATIENTS” (Altesa BioSciences, Inc., priority 2023, published 2024)",
  "experiment": "Tissue concentrations of Formula I and its metabolites in Göttingen pigs after a single oral or intravenous dose (LC-MS/MS)",
  "type": "in vivo",
  "settings": "for concentration at 2 h / concentration at 12 h / concentration at 3 h / concentration at 24 h: both sexes, Göttingen, pig (minipig); for concentration at 2 h: 2 hpd; for concentration at 3 h: 3 hpd; for concentration at 24 h: 24 hpd",
  "procedure": "Tissue samples were collected at 3, 12, and 24 hours post-dose (hpd) for the oral dose and 2 and 12 hpd for the intravenous dose, snap-frozen in liquid nitrogen, and stored at −60 to −90° C. until shipment on dry ice for analysis by LC-MS/MS.\nAnimals were weighed the day prior to dosing to determine the dosing volume.\nThe compound of Formula I was dissolved in a PEG 400/DI water (60%/40% v/v) vehicle for oral dosing. For IV dosing the compound of Formula I was dissolved in a PEG 400/Cremophor RH 40/Saline (40%/10%/50% v/v) vehicle and passed through a sterile filter. […] Animals were euthanized by euthanasia solution administration under sedation, if necessary (e.g., acepromazine and or/Telazol®), followed by a Testing Facility SOP approved method to ensure death (e.g., exsanguination). Tissues were collected from two animals per sex per timepoint. Tissue samples, including the brain, heart, kidney, liver, lung, spleen, pancreas, bone marrow, duodenum, jejunum, and colon, were collected in duplicate (approximately 50±20 mg each) and placed into two separate reinforced homogenization tubes per organ (one tissue sample per tube). The exact weight (in milligrams) of each sample was recorded. Tissues samples were flash frozen in liquid nitrogen and stored at −60 to −90° C. until shipment on dry ice for analysis by LC-MS/MS.\nMobile phase A consisted of 50 mM ammonium bicarbonate buffer in HPLC grade water pH 9.8 and mobile phase B consisted of pure acetonitrile. […] Mass spectrometry analysis was performed on a QTrap 7500 Mass Spectrometer (Sciex, Framingham, MA, USA) using negative mode electrospray ionization (ESI) in multiple reaction monitoring (MRM) mode. Data analysis was performed using SCIEX OS Software (Sciex, Framingham, MA, USA).\nTissue samples were collected at 3, 12, and 24 hours post-dose for the oral dose and 2 and 12 hour post-dose for the intravenous dose.",
  "key": {"[1]": {"settings": "2-3 hours after IV 25 mg/kg or PO 125 mg/kg dosing"}, "[2]": {"settings": "brain, single oral dose of Formula I 125 mg/kg, read-out: Tissue concentration, brain"}, "[3]": {"settings": "heart, single oral dose of Formula I 125 mg/kg, read-out: Tissue concentration, heart"}, "[4]": {"settings": "kidney, single oral dose of Formula I 125 mg/kg, read-out: Tissue concentration, kidney"}, "[5]": {"settings": "liver, single oral dose of Formula I 125 mg/kg, read-out: Tissue concentration in Göttingen pig liver (Table 7)"}, "[6]": {"settings": "liver, single oral dose of Formula I 125 mg/kg, read-out: Tissue concentration, liver"}, "[7]": {"settings": "lung, single oral dose of Formula I 125 mg/kg, read-out: Tissue concentration, lung"}, "[8]": {"settings": "spleen, single oral dose of Formula I 125 mg/kg, read-out: Tissue concentration, spleen"}},
  "note": "Where two headings read alike, the source gives them in different places.",
  "data": [
    {"smiles": "C[C@@]1(O)[C@H](O)[C@@H](CO)O[C@H]1n1ccc(=O)[nH]c1=S", "note": "[Formula VI]", "values": [
      {"measurement": "Brain level, additional fold lower than heart, lung and spleen", "setting": "[1]", "value": "approximately 10 fold"},
      {"measurement": "Kidney and liver levels relative to heart, lung and spleen (fold higher)", "setting": "[1]", "value": "approximately 10 fold"},
      {"measurement": "Additional decrease of levels in all organs", "setting": "24 hpd after oral dose, all organs", "value": "2-3 fold"},
      {"measurement": "Decrease of levels in all organs", "setting": "12 hours post oral dose, all organs", "value": "4-6 fold"},
      {"measurement": "concentration at 2 h", "setting": "brain, single intravenous bolus of Formula I 25 mg/kg, read-out: Tissue concentration, brain", "value": "140 ± 56.7", "unit": "ng/g"},
      {"measurement": "concentration at 12 h", "setting": "brain, single intravenous bolus of Formula I 25 mg/kg, 12 hpd, read-out: Tissue concentration, brain", "value": "6.4 ± 12.8", "unit": "ng/g"},
      {"measurement": "concentration at 3 h", "setting": "[2]", "value": "192 ± 77.9", "unit": "ng/g"},
      {"measurement": "concentration at 12 h", "setting": "brain, single oral dose of Formula I 125 mg/kg, 12 hpd, read-out: Tissue concentration, brain", "value": "111 ± 38.6", "unit": "ng/g"},
      {"measurement": "concentration at 24 h", "setting": "[2]", "value": "37.9 ± 9.15", "unit": "ng/g"},
      {"measurement": "concentration at 2 h", "setting": "heart, single intravenous bolus of Formula I 25 mg/kg, read-out: Tissue concentration, heart", "value": "1990 ± 195", "unit": "ng/g"},
      {"measurement": "concentration at 12 h", "setting": "heart, single intravenous bolus of Formula I 25 mg/kg, 12 hpd, read-out: Tissue concentration, heart", "value": "57.3 ± 23.3", "unit": "ng/g"},
      {"measurement": "concentration at 3 h", "setting": "[3]", "value": "3370 ± 645", "unit": "ng/g"},
      {"measurement": "concentration at 12 h", "setting": "heart, single oral dose of Formula I 125 mg/kg, 12 hpd, read-out: Tissue concentration, heart", "value": "533 ± 213", "unit": "ng/g"},
      {"measurement": "concentration at 24 h", "setting": "[3]", "value": "240 ± 27.7", "unit": "ng/g"},
      {"measurement": "concentration at 2 h", "setting": "kidney, single intravenous bolus of Formula I 25 mg/kg, read-out: Tissue concentration, kidney", "value": "25400 ± 5560", "unit": "ng/g"},
      {"measurement": "concentration at 12 h", "setting": "kidney, single intravenous bolus of Formula I 25 mg/kg, 12 hpd, read-out: Tissue concentration, kidney", "value": "701 ± 48.7", "unit": "ng/g"},
      {"measurement": "concentration at 3 h", "setting": "[4]", "value": "29400 ± 2170", "unit": "ng/g"},
      {"measurement": "concentration at 12 h", "setting": "kidney, single oral dose of Formula I 125 mg/kg, 12 hpd, read-out: Tissue concentration, kidney", "value": "7420 ± 1440", "unit": "ng/g"},
      {"measurement": "concentration at 24 h", "setting": "[4]", "value": "2740 ± 503", "unit": "ng/g"},
      {"measurement": "concentration at 2 h", "setting": "liver, single intravenous bolus of Formula I 25 mg/kg, read-out: Tissue concentration, liver", "value": "7960 ± 1530", "unit": "ng/g"},
      {"measurement": "concentration at 12 h", "setting": "liver, single intravenous bolus of Formula I 25 mg/kg, 12 hpd, read-out: Tissue concentration, liver", "value": "201 ± 126", "unit": "ng/g"},
      {"measurement": "concentration at 3 h", "setting": "[5]", "value": "66.3 ± 23.7", "unit": "µM"},
      {"measurement": "concentration at 3 h", "setting": "[6]", "value": "18200 ± 6500", "unit": "ng/g"},
      {"measurement": "concentration at 12 h", "setting": "liver, single oral dose of Formula I 125 mg/kg, 12 hpd, read-out: Tissue concentration in Göttingen pig liver (Table 7)", "value": "9.46 ± 5.56", "unit": "µM"},
      {"measurement": "concentration at 12 h", "setting": "liver, single oral dose of Formula I 125 mg/kg, 12 hpd, read-out: Tissue concentration, liver", "value": "2600 ± 1530", "unit": "ng/g"},
      {"measurement": "concentration at 24 h", "setting": "[5]", "value": "4.08 ± 1.84", "unit": "µM"},
      {"measurement": "concentration at 24 h", "setting": "[6]", "value": "1120 ± 505", "unit": "ng/g"},
      {"measurement": "concentration at 2 h", "setting": "lung, single intravenous bolus of Formula I 25 mg/kg, read-out: Tissue concentration, lung", "value": "2330 ± 130", "unit": "ng/g"},
      {"measurement": "concentration at 12 h", "setting": "lung, single intravenous bolus of Formula I 25 mg/kg, 12 hpd, read-out: Tissue concentration, lung", "value": "93.9 ± 18.8", "unit": "ng/g"},
      {"measurement": "concentration at 3 h", "setting": "[7]", "value": "3580 ± 1060", "unit": "ng/g"},
      {"measurement": "concentration at 12 h", "setting": "lung, single oral dose of Formula I 125 mg/kg, 12 hpd, read-out: Tissue concentration, lung", "value": "536 ± 101", "unit": "ng/g"},
      {"measurement": "concentration at 24 h", "setting": "[7]", "value": "242 ± 85.7", "unit": "ng/g"},
      {"measurement": "concentration at 2 h", "setting": "spleen, single intravenous bolus of Formula I 25 mg/kg, read-out: Tissue concentration, spleen", "value": "1620 ± 181", "unit": "ng/g"},
      {"measurement": "concentration at 12 h", "setting": "spleen, single intravenous bolus of Formula I 25 mg/kg, 12 hpd, read-out: Tissue concentration, spleen", "value": "49.2 ± 9.7", "unit": "ng/g"},
      {"measurement": "concentration at 3 h", "setting": "[8]", "value": "3010 ± 433", "unit": "ng/g"},
      {"measurement": "concentration at 12 h", "setting": "spleen, single oral dose of Formula I 125 mg/kg, 12 hpd, read-out: Tissue concentration, spleen", "value": "539 ± 195", "unit": "ng/g"},
      {"measurement": "concentration at 24 h", "setting": "[8]", "value": "292 ± 139", "unit": "ng/g"},
      {"measurement": "12 hpd levels after IV dosing, fold lower than corresponding levels after PO dosing", "setting": "each organ, 12 hpd, IV 25 mg/kg vs PO 125 mg/kg", "value": "approximately 10 fold"}
    ]}
  ]
}
